Test [1] addresses T1, Prostaglandin G/H synthase 2 (Homo sapiens, UniProt P35354).
T1 sequence (P35354 whole entry): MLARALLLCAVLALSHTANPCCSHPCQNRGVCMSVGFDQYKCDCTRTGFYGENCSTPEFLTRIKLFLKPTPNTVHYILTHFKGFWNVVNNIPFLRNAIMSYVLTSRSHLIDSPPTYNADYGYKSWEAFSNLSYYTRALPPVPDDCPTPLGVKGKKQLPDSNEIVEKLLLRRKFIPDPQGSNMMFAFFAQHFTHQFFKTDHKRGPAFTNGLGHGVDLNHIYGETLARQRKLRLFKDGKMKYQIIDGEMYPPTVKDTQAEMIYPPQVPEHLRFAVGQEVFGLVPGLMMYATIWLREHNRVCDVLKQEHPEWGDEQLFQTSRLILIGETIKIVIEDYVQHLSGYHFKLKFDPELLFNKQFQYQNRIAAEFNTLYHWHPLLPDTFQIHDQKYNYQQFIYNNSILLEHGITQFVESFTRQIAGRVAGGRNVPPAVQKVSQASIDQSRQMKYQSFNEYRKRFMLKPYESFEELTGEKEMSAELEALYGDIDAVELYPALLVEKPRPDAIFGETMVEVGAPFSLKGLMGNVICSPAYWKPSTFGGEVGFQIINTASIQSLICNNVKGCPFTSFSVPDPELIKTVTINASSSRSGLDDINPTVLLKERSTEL
As to the kind of experiment: Inhibition of human recombinant COX2 by enzyme immunoassay.

A short description of test [2]: Inhibition of potato 5LOX by enzyme immunoassay. Further details: species or system Solanum tuberosum.
In test [3] the test system is Rattus norvegicus. Nature of the test: Antiinflammatory activity against carrageenan-induced foot paw edema in po dosed rat after 3 hrs. The test is classed as functional. In general terms: The carrageenan paw model is a standard test of acute inflammation.
Test [4] has as its target T2, Prostaglandin G/H synthase 1 (Bos taurus, UniProt O62664).
T2 sequence (O62664 whole entry): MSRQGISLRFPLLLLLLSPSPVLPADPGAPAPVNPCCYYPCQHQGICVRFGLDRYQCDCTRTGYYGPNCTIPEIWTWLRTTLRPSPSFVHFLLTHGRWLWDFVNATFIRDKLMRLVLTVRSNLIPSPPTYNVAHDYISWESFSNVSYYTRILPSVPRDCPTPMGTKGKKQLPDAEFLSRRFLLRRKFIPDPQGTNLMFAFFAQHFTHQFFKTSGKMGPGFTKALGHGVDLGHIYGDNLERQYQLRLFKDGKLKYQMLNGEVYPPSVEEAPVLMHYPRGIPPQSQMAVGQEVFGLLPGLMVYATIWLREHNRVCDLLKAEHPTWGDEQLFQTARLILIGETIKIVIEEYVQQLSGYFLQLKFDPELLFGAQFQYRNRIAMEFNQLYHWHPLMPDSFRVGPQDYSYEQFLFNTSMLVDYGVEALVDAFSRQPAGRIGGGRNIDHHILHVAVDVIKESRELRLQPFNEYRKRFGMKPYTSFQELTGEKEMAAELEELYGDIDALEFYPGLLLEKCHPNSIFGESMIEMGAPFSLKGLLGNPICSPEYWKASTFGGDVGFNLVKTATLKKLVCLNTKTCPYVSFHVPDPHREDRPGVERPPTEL
Description: Inhibition of bovine COX1 by enzyme immunoassay

The subject of test [5] is Rattus norvegicus. As to the kind of experiment: Antiinflammatory activity against carrageenan-induced foot paw edema in rat at 150 mg/kg, po after 3 hrs. Type of test: functional.

Experimental findings from ChEMBL document CHEMBL1152816 (J Med Chem, 2009) are described below.

One may read the IC50 as the concentration at which inhibition is half-maximal. By ED50 is commonly meant the midpoint of the dose-response relation. Lower therefore signals an effect at a small dose. `CS(=O)(=O)c1ccc(-n2nc(C(F)(F)F)cc2-c2ccn(C(F)F)c(=O)c2)cc1`: the values for the concentration for half-maximal inhibition (IC50) in test [1], in test [2] and in test [4] were 1.82 µM, 4.4 µM and 7.8 µM, respectively. Further, the ED50 in the test with Rattus norvegicus [3] is 42.9 mg/kg.

In test [2], `O=C(O)/C=C/c1ccc(O)c(O)c1` [CAFFEIC ACID] had an IC50 of 4 µM.

Regarding `CS(=O)(=O)c1ccc(-n2nc(C(F)(F)F)cc2-c2ccnc(Cl)c2)cc1`, the IC50 in test [2] was 0.47 µM; in test [4], 258 µM. The 50% effective dose (ED50) with Rattus norvegicus [3] is greater than 150 mg/kg. Besides, in the test on Rattus norvegicus [5], the Activity was determined as 43.1%.

As for `NS(=O)(=O)c1ccc(-n2nc(C(F)(F)F)cc2-c2ccnc(Cl)c2)cc1`, the results for the IC50 in test [1], in test [2] and in test [4] were 0.73 µM, 0.39 µM and 8.3 µM, respectively. Moreover, the ED50 with Rattus norvegicus [3] is greater than 150 mg/kg. The molecule also had an Activity with Rattus norvegicus [5] of 33.3%.

`CC(C)Cc1ccc(C(C)C(=O)O)cc1` (centres undefined) [IBUPROFEN] came in with an ED50 in the test on Rattus norvegicus [3] of 67.4 mg/kg.

Turning to `NS(=O)(=O)c1ccc(-n2nc(C(F)(F)F)cc2-c2ccn(C(F)F)c(=O)c2)cc1`, the concentration for half-maximal inhibition (IC50) in test [1] was 0.69 µM; in test [2], 5 µM; in test [4], 13.1 µM. For the same molecule, the 50% effect level in the test on Rattus norvegicus [3] (ED50) was put at a dose of 27.7 mg/kg.
